Results as given in patent publication US10669238B2, “Irreversible bruton's tyrosine kinase inhibitor” (HEFEI INSTITUTES OF PHYSICAL SCIENCE, CHINESE ACADEMY OF …, priority 2016, dated 2020).

How the values were obtained:
mouse pro-B cells BaF3 = assay: Cell proliferation (Cell Titer-Glo), WT-BaF3; format: cell-based; conditions: WT-BaF3, 72 hours, read-out: Effects on cell proliferation (GI50)
Method: (§1) The selectivity of Compound 1 in inhibiting the proliferation of cancer cells was further evaluated by testing the effect of Btk inhibitors on the growth of cancer cells. […]
(§2) In this example different concentrations (0.000508 μM, 0.00152 μM, 0.00457 μM, 0.0137 μM, 0.0411 μM, 0.123 μM, 0.370 μM, 1.11 μM, 3.33 μM, 10 μM) of Compound 1 and Compound 6 were respectively added into the above cells which were then cultured for 72 hours. The number of viable cells was determined via quantitative determination of ATP in living cells by using Cell Titer-Glo® (Promega, the USA) Chemical Luminescent Cell Viability Assay kit.

[1] = test system: diffuse large B-cell lymphoma cell line OCI-LY10; assay: Cell proliferation (Cell Titer-Glo), OCI-LY10; format: cell-based; conditions: Homo sapiens; OCI-LY10, 72 hours; read-out: Effects on cell proliferation (GI50)
Method: as §1, §2

[2] = test system: multiple myeloma cell lines RPM18226; assay: Cell proliferation (Cell Titer-Glo), RPMI8226; format: cell-based; conditions: Homo sapiens, RPMI-8226; RPMI8226, 72 hours; read-out: Effects on cell proliferation (GI50)
Method: as §1, §2

[3] = test system: acute myeloid leukemia cell lines M-07e; assay: Cell proliferation (Cell Titer-Glo), M-07e; format: cell-based; conditions: 72 hours, read-out: Effects on cell proliferation (GI50)
Method: as §1, §2

leukemic cells K562 = assay: Cell proliferation (Cell Titer-Glo), K562; format: cell-based; conditions: Homo sapiens; K562, 72 hours; read-out: Effects on cell proliferation (GI50)
Method: as §1, §2

[4] = test system: diffuse large B-cell lymphoma cell lines TMD8; assay: Cell proliferation (Cell Titer-Glo), TMD8; format: cell-based; conditions: Homo sapiens, TMD8, 72 h, read-out: Effects on cell proliferation (GI50)
Excerpt: The following cells were adopted in the example: acute myelocytic leukemia cell strains (acute myelocytic leukemia, AML) HL-60, B-lymphoma cell Ramos, colon cancer cells HCT116, leukemic cells K562, B-cell lymphoma cells U2932, diffuse large B-cell lymphoma cell line OCI-LY10, diffuse histiocytic lymphoma cells SU-DHL-2, diffuse large B-cell lymphoma cell lines TMD8, leukemia cell OCI-AML-3, acute promyelocytic leukemia cell line NB-4 (Lu+), MDS-RAEB (myelodysplastic syndrome—excessive blasts) cell lines SKM-1, human leukocyte leukemia cells HEL, acute myeloid leukemia cell lines (acute myelocytic leukemia, AML) U937, acute myeloid leukemia cell lines (acute myelocytic leukemia, AML) MOLM14, acute myeloid leukemia cell lines (acute myelocytic leukemia, AML) MOLM13, acute myeloid leukemia cell lines (acute myelocytic leukemia, AML) M-07e, acute myeloid leukemia cell lines (acute myelocytic leukemia, AML) MV4-11, acute myeloid leukemia cell lines (acute myelocytic leukemia, AML) MOLM16, diffuse large B-cell lymphoma cell lines Pfeiffer, multiple myeloma cell lines (multiple myeloma) RPM18226, bone marrow plasma cell tumor cells AMO-1, mouse pro-B cells BaF3, all purchased from ATCC.

[5] = test system: acute myeloid leukemia cell lines MOLM14; assay: Cell proliferation (Cell Titer-Glo), MOLM14; format: cell-based; conditions: Homo sapiens, MOLM-14; MOLM14, 72 hours; read-out: Effects on cell proliferation (GI50)
Method: as §1, §2

[6] = test system: acute myeloid leukemia cell lines MOLM13; assay: Cell proliferation (Cell Titer-Glo), MOLM13; format: cell-based; conditions: Homo sapiens, MOLM-13; MOLM13, 72 hours; read-out: Effects on cell proliferation (GI50)
Method: as §1, §2

leukemia cell OCI-AML-3 = assay: Cell proliferation (Cell Titer-Glo), OCI-AML-3; format: cell-based; conditions: Homo sapiens; OCI-AML-3, 72 hours; read-out: Effects on cell proliferation (GI50)
Method: as §1, §2

[7] = test system: B-cell lymphoma cells U2932; assay: Cell proliferation (Cell Titer-Glo), U2932; format: cell-based; conditions: Homo sapiens; U2932, 72 hours; read-out: Effects on cell proliferation (GI50)
Method: as §1, §2

[8] = test system: diffuse histiocytic lymphoma cells SU-DHL-2; assay: Cell proliferation (Cell Titer-Glo), SU-DHL-2; format: cell-based; conditions: Homo sapiens; SU-DHL-2, 72 hours; read-out: Effects on cell proliferation (GI50)
Method: as §1, §2

BTK WT = BTK WT (Homo sapiens, UniProt Q06187); assay: Btk cell-free kinase assay, BTK WT protein; format: biochemical; conditions: compound 30 mins at room temperature, then 100 μM ATP 20 min at 37° C.
Excerpt: The BTK wild-type plasmid and the BTK mutant plasmid (C481S) were respectively transfected into SF9 cells (purchased from invitrogen), and after three generations of virus amplification, the P3-generation virus was used to transfect SF9 cells which were collected after 72-hour culture to obtain protein BTK WT and protein BTK C481S, which were then purified.

B-lymphoma cell Ramos = assay: Cell proliferation (Cell Titer-Glo), Ramos; format: cell-based; conditions: Homo sapiens, Romas, 72 hours, read-out: Effects on cell proliferation (GI50)
Method: as §1, §2

[9] = test system: colon cancer cells HCT116; assay: Cell proliferation (Cell Titer-Glo), HCT116; format: cell-based; conditions: Homo sapiens, HCT-116; HCT116, 72 hours; read-out: Effects on cell proliferation (GI50)
Method: as §1, §2

[10] = target: T1, TEL-LYN-BaF3 cells (stably expressing TEL-LYN activated kinase) (Homo sapiens, UniProt P07948); assay: Cell proliferation (Cell Titer-Glo), BaF3-tel-LYN; format: cell-based; conditions: BaF3-tel-LYN (mouse BaF3 cells), 72 hours; read-out: Effects on cell proliferation (GI50)
T1 construct: expressed in transfected cells; host or cells: mouse BaF3 cells, retroviral MSCV-Puro; the other entry of the earlier key: ETV6 (P41212, Transcription factor ETV6)
Method: as §1, §2

[11] = test system: acute myeloid leukemia cell lines MOLM16; assay: Cell proliferation (Cell Titer-Glo), MOLM-16; format: cell-based; conditions: MOLM-16, 72 hours, read-out: Effects on cell proliferation (GI50)
Method: as §1, §2

T1 sequence (P07948 247-501 limits assumed): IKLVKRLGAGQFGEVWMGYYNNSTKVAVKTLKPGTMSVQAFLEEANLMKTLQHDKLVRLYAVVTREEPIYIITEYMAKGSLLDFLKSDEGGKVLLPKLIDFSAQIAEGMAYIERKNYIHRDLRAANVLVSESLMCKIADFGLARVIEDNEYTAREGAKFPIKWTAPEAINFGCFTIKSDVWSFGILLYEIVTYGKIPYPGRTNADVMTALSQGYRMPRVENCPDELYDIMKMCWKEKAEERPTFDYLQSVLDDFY
Sequence of BTK WT (Q06187 whole entry): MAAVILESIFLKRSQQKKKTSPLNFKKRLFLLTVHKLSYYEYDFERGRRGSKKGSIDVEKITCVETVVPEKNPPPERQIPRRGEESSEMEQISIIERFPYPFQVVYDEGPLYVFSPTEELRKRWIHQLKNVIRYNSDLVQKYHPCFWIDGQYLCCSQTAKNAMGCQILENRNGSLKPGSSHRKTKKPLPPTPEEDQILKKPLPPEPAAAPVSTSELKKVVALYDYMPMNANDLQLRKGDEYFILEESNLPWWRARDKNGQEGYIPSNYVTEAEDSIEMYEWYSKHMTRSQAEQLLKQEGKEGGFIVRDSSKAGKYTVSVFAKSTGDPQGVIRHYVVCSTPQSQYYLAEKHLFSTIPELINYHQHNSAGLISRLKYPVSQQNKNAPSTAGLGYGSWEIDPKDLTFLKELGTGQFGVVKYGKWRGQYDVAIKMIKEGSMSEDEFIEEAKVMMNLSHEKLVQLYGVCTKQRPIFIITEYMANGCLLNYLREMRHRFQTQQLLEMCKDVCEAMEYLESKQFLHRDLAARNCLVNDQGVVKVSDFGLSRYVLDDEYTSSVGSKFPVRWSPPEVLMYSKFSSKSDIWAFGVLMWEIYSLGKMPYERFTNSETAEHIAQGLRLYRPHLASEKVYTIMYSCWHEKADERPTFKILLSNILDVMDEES

Row | GI50 (mouse pro-B cells BaF3) | GI50 [1] | GI50 [2] | GI50 [3] | GI50 (leukemic cells K562) | GI50 [4] | GI50 [5] | GI50 [6] | GI50 (leukemia cell OCI-AML-3) | GI50 [7] | GI50 [8] | EC50 (BTK WT; read-out: EC50 against BTK WT protein) | GI50 (B-lymphoma cell Ramos) | GI50 [9] | GI50 [10] | GI50 [11] | inhibitory effects against BTK WT (BTK WT) | SMILES
1 | 7.9 µM | 3.4 µM | 2.9 µM | 7.3 µM | 4.2 µM | 0.001 µM | 6.4 µM | 2.2 µM | 3.8 µM | 2.4 µM | 3 µM | 0.0047 µM | 3.5 µM | > 10 µM | 6.3 µM | 3.5 µM | – | C=CC(=O)Nc1cc(Nc2cc(-c3cccc(NC(=O)c4ccc(C(C)(C)C)cc4)c3C)cn(C)c2=O)ccc1C(=O)N1CCOCC1 [Compound 1, N-(3-(5-((3-acrylamide-4-(morpholin-4-carbonyl)phenyl)amino)-1-methyl-6-oxo-1,6-dihydropyridin-3-yl)-2-methylphenyl)-4-(tert-butyl)benzamide]
2 | 6.3 µM | 3 to 10 µM | 4.7 µM | > 10 µM | > 10 µM | 0.75 µM | > 10 µM | 4 µM | 9.5 µM | > 10 µM | > 10 µM | – | 4.6 µM | > 10 µM | 6.8 µM | > 10 µM | no inhibitory effects | CCC(=O)Nc1cc(Nc2cc(-c3cccc(NC(=O)c4ccc(C(C)(C)C)cc4)c3C)cn(C)c2=O)ccc1C(=O)N1CCOCC1 [Compound 6, N-(3-(5-((3-propanamide-4-(morpholin-4-carbonyl)phenyl)amino)-1-methyl-6-oxo-1,6-dihydropyridin-3-yl)-2-methylphenyl)-4-(tert-butyl)benzamide]
